Reference: patent publication US12029793B2, “pH low insertion peptide targeted delivery of potent cytotoxic compounds” (University of Rhode Island Board of Trustees, priority 2019, dated 2024)
Side chains are listed from the residue outwards. Ends that are not written are not given here. * marks the point of attachment. mertansine = COc1cc2cc(c1Cl)N(C)C(=O)C[C@H](OC(=O)[C@H](C)N(C)C(=O)CCS*)[C@]1(C)O[C@H]1[C@H](C)[C@@H]1C[C@@](O)(NC(=O)O1)[C@H](OC)/C=C/C=C(\C)C2; SPDP = linker on the drug for disulfide conjugation to Cys

What was measured:
[1] = system: MDA-MB-231 human triple negative breast or HeLa human cervical tumors; assay: Tumor weight after IP or IT treatment with pHLIP-S-S-mertansine; format: in vivo, female athymic nude mice; details: for tumor weight reduction: vs non-treated control
Method: FIG. 19C depicts a box plot presenting mean (filled square), median, 25 and 75 percentiles (box itself) and standard deviation values of the tumor weights collected after IP and IT treatment with pHLIP-S-S-mertansine compared to the control (non-treated) group. P-level was calculated using two-tailed test.
pHLIP-S-S-mertansine dissolved in PBS and was given as multiple intraperitoneal (IP) or intratumoral (IT) injections (once in 3-4 days) into mice bearing MDA-MB-231 human triple negative breast or HeLa human cervical tumors in flanks of female athymic nude mice. The total combined dose of the multiple IP injections of pHLIP-S-S-mertansine was […], and the total combined dose of the multiple IT injections of pHLIP-S-S-mertansine was ˜2.5 mg/kg. When the tumor reached a size of about 1 cm^3 (about 1 g) in the control (non-treated) group, the animals were sacrificed; tumors were collected (FIG. 19B) and weighted (FIG. 19C).
In a separate experiment, IT injections were performed, tumors disappeared and mice were left for several weeks.

[2] = system: panel of urinary bladder cancer cell lines; assay: Cell viability on panel of urinary bladder cancer cell lines (summary statements); format: cell-based; details: amanitin alone, two hours, concentrations up to 2 μM
Method: The cytotoxic and highly polar agents, like amanitin, may be especially effective in topical applications.
Cancer cells were loaded in the wells of 96-well plates (5,000 cells/well) and incubated overnight. The standard growth medium was replaced with medium without FBS, at pH 6.0 or 7.4, containing increasing amounts of pHLIP-S-S-amanitin (from 0 to 2.0 μM). The pH 6.0 medium was prepared by mixing 13.3 g of dry DMEM in 1 L of deionized water. After two-hour incubation with the pHLIP-S-S-amanitin, the construct was removed and replaced with standard growth medium. […] Cell viability was assessed after 48 hours using the colorimetric CellTiter 96 AQueous One Solution Cell Proliferation Assay by absorption measurement at 490 nm (FIG. 20B presents an example of the data obtained on SCaBER squamous cell carcinoma).
There was no difference in the viability of cells incubated with media, without construct, at pH 7.4 and pH 6.0; therefore, the role of pH was excluded from the consideration. Therapeutic index (TI) was calculated according to the equation: […]
Table 8 below contains EC50 values obtained for the treatment at pH 7.4 and pH 6.0 and calculated therapeutic index, which clearly indicated a pH-dependent cell action of pHLIP-S-S-amanitin. […]

[3] = system: HeLa human cervical tumors; assay: Tumor weight after treatment with pHLIP-S-S-exatecan; format: in vivo, female athymic nude mice
[4] = system: HeLa human cervical tumors; assay: Tumor weight after IP treatment with pHLIP-S-S-calicheamicin; format: in vivo, female athymic nude mice; details: multiple IP injections once in 3-4 days, total ~1.5 mg/kg, vs non-treated control
Method: FIG. 21C depicts box plot presenting mean (filled squares), median, 25 and 75 percentiles (box) and standard deviation values of tumor weights after IP and IT treatment with pHLIP-S-S-calicheamicin compared to the control (non-treated) group. P-level was calculated using two-tailed test.
Calicheamicin modified with SPDP was synthesized and purified by Cfm, GmbH (FIG. 21A). Calicheamicin-SPDP was used to conjugate with Cys residue of pHLIP® peptide's membrane-inserting end to obtain pHLIP-S-S-calicheamicin. The pHLIP® peptide used in the study: […] (SEQ ID NO: 3) was prepared by solid-phase synthesis. Purification of the pHLIP-S-S-calicheamicin was conducted using RP-HPLC (the gradient: 10 mM TEAA buffer and acetonitrile), followed by lyophilization. The construct purity and identity was established by analytical RP-HPLC and surface-enhanced laser desorption/ionization time of flight (SELDI-TOF) mass spectroscopy, respectively. Construct concentration was calculated by absorbance at 280 nm for pHLIP® peptide with correction on absorbance of calicheamicin. pHLIP-S-S-calicheamicin dissolved in PBS was given as multiple intraperitoneal (IP) or intratumoral (IT) injections (once in 3-4 days) into mice bearing HeLa human cervical tumors in flank of female athymic nude mice.
The total combined dose of the multiple IP injections of pHLIP-S-S-calicheamicin was ˜1.5 mg/kg. […]

## pHLIP-S-S-mertansine: Mertansine (DM1) conjugated to membrane-inserting end of pHLIP peptide ADDQNPWRAYLDLLFPTDTLLLDLLWCA (SEQ ID NO: 3) via cleavable S-S link (ADDQNPWRAYLDLLFPTDTLLLDLLWC(mertansine)A)
[1]; after IT administration, in some cases
  tumor disappearance: tumor disappeared
[1]; in the course of IP or IT treatment
  signs of toxicity: no signs of toxicity
[1]; multiple IP injections once in 3-4 days, total combined dose −10 mg/kg
  tumor weight reduction: About 60%
[1]; multiple IT injections once in 3-4 days, total combined dose ~2.5 mg/kg
  tumor weight reduction: more than 90%
[1]; separate experiment, IT injections, tumors disappeared, mice left for several weeks
  cases with no tumor re-growth: 60%

## CC[C@H](C)[C@@H]1NC(=O)CNC(=O)[C@@H]2Cc3c([nH]c4cc(O)ccc34)[S@+]([O-])C[C@H](NC(=O)CNC1=O)C(=O)N[C@@H](CC(N)=O)C(=O)N1C[C@H](O)C[C@H]1C(=O)N[C@@H]([C@@H](C)[C@@H](O)CO)C(=O)N2 [amanitin, alpha-amanitin]
[2]
  induction of cell death: did not induce cell death

## pHLIP-S-S-exatecan: Exatecan-SPDP conjugated with single Cys residue of membrane-inserting end of pHLIP peptide ADDQNPWRAYLDLLFPTDTLLLDLLWCA (SEQ ID NO: 3) (ADDQNPWRAYLDLLFPTDTLLLDLLWC([SPDP-exatecan])A)
[3]; IP administration, multiple injections once in 3-4 days, vs non-treated control
  tumor weight reduction: 50-60%
[3]; IT administration
  tumor weight reduction: more than 70%

## pHLIP-S-S-calicheamicin: Calicheamicin-SPDP conjugated with Cys residue of membrane-inserting end of pHLIP peptide ADDQNPWRAYLDLLFPTDTLLLDLLWCA (SEQ ID NO: 3) (ADDQNPWRAYLDLLFPTDTLLLDLLWC([SPDP-calicheamicin])A)
[4]
  tumor weight reduction: About 88%
